Reference: the OPERA property sets (Mansouri et al. 2018)

Details: for log10 BCF / log10 biotransformation half-life (days): fish

Compound: CC(C)(C)C(=O)O
- boiling point: 164 °C
- log10 Henry constant (atm·m³/mol): -5.56
- log10 vapour pressure (mmHg): -0.301
- melting point: 35 °C
- ready biodegradability: not readily biodegradable
- log10 BCF: 0.36

Compound: C[C@H](O)CCCO
- boiling point: 202 °C

Compound: c1ccc(CNCc2ccccc2)cc1
- log10 vapour pressure (mmHg): -3.1
- melting point: -26 °C

Compound: CC(Cl)=CCl
- log10 vapour pressure (mmHg): 1.96

Compound: CCCCCC(=O)OCCC
- boiling point: 187 °C
- melting point: -68.7 °C

Compound: O=C1CCCC1
- boiling point: 130 °C
- log10 Henry constant (atm·m³/mol): -5
- log10 Koa: 3.67
- log10 vapour pressure (mmHg): 1.06
- melting point: -51.3 °C

Compound: CCC1(N2CCCCC2)C(=O)NC(=O)NC1=O
- melting point: 215 °C

Compound: O=C1OCc2c(Cl)c(Cl)c(Cl)c(Cl)c21
- log10 Koc (L/kg): 3.3
- log10 vapour pressure (mmHg): -7.65
- melting point: 210 °C

Compound: CC=CC(=O)Cl
- boiling point: 124 °C

Compound: CCCCC(CC)COCC(CC)CCCC (stereo unspecified)
- boiling point: 269 °C

Compound: COB(OC)OC
- boiling point: 68 °C
- log10 vapour pressure (mmHg): 2.13
- melting point: -31.6 °C

Compound: CCCCCC=CC=O
- log10 Henry constant (atm·m³/mol): -4.13

Compound: c1ccc2c(c1)ccc1cccnc12
- boiling point: 339 °C
- log10 vapour pressure (mmHg): -3.66
- melting point: 52 °C

Compound: O=C(O)Cc1ccccc1CC(=O)O
- melting point: 151 °C

Compound: c1ccc(CNc2[nH]cnc3ncnc2-3)cc1
- log10 vapour pressure (mmHg): -10.7
- melting point: 233 °C

Compound: FC1(F)C(F)(F)C(F)(Cl)C1(F)Cl (stereo unspecified)
- boiling point: 59.5 °C
- log10 vapour pressure (mmHg): 2.36
- melting point: -24.2 °C

Compound: BrC=CBr
- boiling point: 110 °C
- log10 Koc (L/kg): 1.65
- log10 vapour pressure (mmHg): 1.49
- melting point: -37.5 °C
- ready biodegradability: not readily biodegradable

Compound: CCOC(=O)C(C(=O)OCC)C(C)C
- boiling point: 215 °C

Compound: Cc1c(Br)cc(Br)cc1Br
- boiling point: 290 °C
- melting point: 70 °C

Compound: CC(C)(Br)C(=O)O
- boiling point: 199 °C
- melting point: 48.5 °C

Compound: O=C1OC(C(O)CO)C(O)=C1O (stereo unspecified)
- melting point: 168 °C

Compound: COc1c(Cl)cc(Cl)cc1Cl
- boiling point: 241 °C
- melting point: 61.5 °C
- log10 BCF: 2.86

Compound: CCCCCC=CC(C)C
- boiling point: 161 °C

Compound: Clc1[nH]nc2ccccc12
- melting point: 149 °C

Compound: CC1CC=CC1
- boiling point: 65.7 °C
- melting point: -161 °C

Compound: CC(C)CCC(C)O (stereo unspecified)
- boiling point: 151 °C
- log10 vapour pressure (mmHg): 0.307

Compound: FCCCCCCCl
- boiling point: 168 °C

Compound: C[C@H]1O[C@@H](n2cc(F)c(=O)[nH]c2=O)[C@H](O)[C@@H]1O
- melting point: 190 °C

Compound: O=C(O)Cc1ccco1
- melting point: 68.5 °C

Compound: O=C1c2ccccc2C(=O)c2c1ccc([N+](=O)[O-])c2[N+](=O)[O-]
- log10 vapour pressure (mmHg): -11.2
- melting point: 341 °C

Compound: OC(CCCN1CCCCC1)(c1ccccc1)c1ccccc1
- melting point: 104 °C

Compound: CS(=O)(=O)c1ccc(C(=O)O)cc1
- melting point: 270 °C

Compound: CCCC(=O)CCC(C)C
- boiling point: 178 °C

Compound: Oc1cccc2[nH]ccc12
- melting point: 100 °C

Compound: CC(C)Nc1nc(N)nc(Cl)n1
- melting point: 133 °C

Compound: Cc1cc(C)c(C)s1
- boiling point: 164 °C

Compound: OC(CCN1CCCCC1)(c1ccccc1)C1CC2C=CC1C2 (stereo unspecified)
- melting point: 114 °C

Compound: O=S(=O)(O)c1ccc2c(O)cc(S(=O)(=O)O)cc2c1
- ready biodegradability: readily biodegradable

Compound: COC(=O)c1cccc(Br)c1
- melting point: 32 °C

Compound: O=C(O)CN(CCN(CC(=O)O)CC(=O)O)CC(=O)O
- log10 vapour pressure (mmHg): -11.8
- ready biodegradability: not readily biodegradable

Compound: CCc1cc(C(C)(C)C)c(O)c(C(C)(C)C)c1
- boiling point: 272 °C
- melting point: 44 °C
- ready biodegradability: not readily biodegradable
- log10 BCF: 3.46
- log10 biotransformation half-life (days): 0.86

Compound: C/C(=N\C#N)N(C)Cc1ccc(Cl)nc1
- melting point: 98.9 °C

Compound: CCOC(=O)c1ccccc1C(=O)OCC
- boiling point: 295 °C
- log10 Koc (L/kg): 1.84
- log10 vapour pressure (mmHg): -2.68
- melting point: -40.5 °C
- ready biodegradability: not readily biodegradable

Compound: c1ccc(Oc2nc(Oc3ccccc3)nc(Oc3ccccc3)n2)cc1
- melting point: 234 °C

Compound: c1ccc2c(c1)Sc1ccccc1S2
- boiling point: 365 °C
- melting point: 159 °C
- ready biodegradability: not readily biodegradable

Compound: CC(=O)OCCOCCOCCOC(C)=O
- boiling point: 286 °C
- melting point: -50 °C

Compound: CC(C)(O)C(F)(F)F
- boiling point: 81 °C

Compound: O=C(Cl)C1CCCCC1
- boiling point: 180 °C

Compound: CC(C)COC(=O)C(=O)OCC(C)C
- boiling point: 229 °C

Compound: NC(=O)Nc1ccc(Cl)c(Cl)c1
- log10 Koc (L/kg): 2.53

Compound: Clc1cc2cc(Cl)c(Cl)cc2cc1Cl
- log10 Koa: 8.45

Compound: CCCOC(C)=O
- boiling point: 102 °C
- log10 Henry constant (atm·m³/mol): -3.66
- log10 Koa: 3.17
- log10 vapour pressure (mmHg): 1.56
- melting point: -93 °C
- ready biodegradability: readily biodegradable

Compound: C#CC(=O)OCC
- boiling point: 120 °C

Compound: O=C(O)C(=O)Nc1ccccc1
- melting point: 150 °C

Compound: O=C=Nc1cccc2ccccc12
- boiling point: 269 °C

Compound: Cc1nc(N(C)C)nc(OC(=O)N(C)C)c1C
- log10 Koc (L/kg): 1.9
- log10 vapour pressure (mmHg): -5.14
- melting point: 90.5 °C

Compound: COC(=O)Nc1cccc(OC(=O)Nc2cccc(C)c2)c1
- log10 Koc (L/kg): 3.38
- log10 vapour pressure (mmHg): -11
- melting point: 143 °C

Compound: c1ccc(Nc2ccccc2)cc1
- boiling point: 302 °C
- log10 Koa: 7.64
- log10 Koc (L/kg): 2.78
- log10 vapour pressure (mmHg): -3.17
- melting point: 52.9 °C
- ready biodegradability: not readily biodegradable
- log10 BCF: 2.18
- log10 biotransformation half-life (days): 0.35

Compound: CC(=O)Nc1ccccc1-c1ccccc1
- boiling point: 355 °C
- melting point: 121 °C

Compound: FC(F)(F)C(F)(F)C(F)(F)C(F)(F)C(F)(F)C(F)(F)Br
- boiling point: 98 °C

Compound: CN(C)CCC(O)(c1ccccc1)c1ccccc1Cl (stereo unspecified)
- melting point: 120 °C
